Measurements reported in patent US20190307783A1, “USE OF ANTIVIRALS TO INHIBIT PROTOZOAN VIRUSES” (priority 2016, published 2019).
Read-outs that look alike come from different tables or passages of the source.

Assays:
[1] = test system: L. guyanensis (LgyLRV1+); assay: Drug-inhibition test: growth of LgyLRV1+ parasites; format: cell-based, Leishmania guyanensis; settings: for Effect on L. guyanensis growth, in words: screen at 100 μM or maximum concentration permitted by solubility, 2 days; for Population doubling time: untreated ˜7.7 hours
Procedure: These compounds were examined for their ability to inhibit the growth of LgyLRV1^+ and virus levels by LRV1 capsid flow cytometry.
Most studies were performed using luciferase-expressing transfectants of L. guyanensis (MHOM/BR/78/M4147) described previously [LRV1^+ LgyM4147/SSU:IR2SAT-LUC(b)c3 and LRV^−LgyM4147/pX63HYG/SSU:IR2SAT-LUC(b)c4] (54); these lines are termed LgyLRV1^+ and LgyLRV1^−, respectively. Two strains of LRV1^+L. braziliensis were examined: LEM2780 (MHOM/BO/90/CS) and LEM3874 (MHOM/BO/99/IMT252 no. 3) (12). Parasites were grown in Schneider's media (Sigma Aldrich, St. Louis, Mo., USA) prepared according to the supplier's instructions with pH adjusted to 6.5 and supplemented with 0.76 mM hemin, 2 μg/mL biopterin, 50 U/mL penicillin, 50 μg/mL streptomycin, and 10% (vol/vol) heat-inactivated FBS. Cell concentrations were determined using a Coulter Counter ([…], Indianapolis, Ind., USA).
(§1) Parasites were inoculated at 2×10^5 cells/mL into Schneider's media lacking supplemental adenine.

[2] = test system: LRV1 (LgyLRV1 capsid levels); assay: microbe, parasite or virus in culture; settings: for Inhibition of LRV1 levels, in words: concentrations up to 100 μM, data not shown; for Effect on LRV1 (capsid) levels, in words: screen at 100 μM or maximum concentration permitted by solubility
Excerpt: Because LRV1 (like most Totiviridae) is not shed from the cell (33, 34), we developed a flow cytometric assay to measure intracellular LRV1 capsid levels on a per cell basis. To detect LRV1 we used binding to a rabbit anti-LgyLRV1 capsid antiserum (35) followed by detection with Alexa Fluor488-conjugated goat anti-rabbit IgG.
as §1
For capsid flow cytometry, 10^7 cells were fixed at room temperature using 2% (wt/vol) paraformaldehyde (Thermo Fisher Scientific) in PBS for 2 minutes. They were then incubated in blocking buffer [10% (vol/vol) normal goat serum (Vector Laboratories, Burlingame, Calif., USA) and 0.2% TRITON X-100 in PBS] for 30 minutes at room temperature. Anti-LgyLRV1 capsid antibody (35) was added (1:20,000 dilution) and incubated at room temperature for 1 hour. After two washes with PBS, cells were resuspended in 200 μL PBS with Alexa Fluor488-labeled goat anti-rabbit IgG (Alexafluor, Invitrogen; 1:1,000; or Thermo Fisher Scientific; 1:2,000 dilution), and incubated 1 hour at room temperature. After two additional washes with PBS, cells were subjected to flow cytometry, gating for single cells using forward and side scatter and the data analyzed using […] software (BD Bioscience, San Jose, Calif., USA).

[3] = Leishmania guyanensis, 48 h, LgyLRV1+, tested at 100 μM, growth after 2 days, read-out: Percent control (density)
[4] = LgyLRV1+, tested at 100 μM, growth after 2 days
[5] = 48 h, read-out: Percent control (LRV1 capsid)
[6] = LgyLRV1+, tested at 100 μM, 2 days
[7] = LgyLRV1+, tested at 50 μM, growth after 2 days
[8] = Leishmania guyanensis, 48 h, read-out: Percent control (density)

Compound | activity at 100 µM [1, 3] [%] | Density (cells/mL) [1, 4] [cells/mL] | activity at 100 µM [2, 5] [%] | LRV1 capsid (geometric mean FU) [2, 6] [FU] | other results
Cc1cn([C@H]2C=C[C@@H](CO)O2)c(=O)[nH]c1=O [Stavudine] | 95 | 1.60E+7 | 83 | 220 | 
O=c1[nH]cnc2c(CN3C[C@H](CO)[C@@H](O)C3)c[nH]c12 [DADMe-Immucillin H] |  |  |  |  | Inhibition of LRV1 levels, in words [2]: no inhibition of LRV1 levels
C[C@H]1O[C@@H](n2cc(F)c(=O)[nH]c2=O)[C@H](O)[C@@H]1O [5-Fluoro-5′-deoxyuridine] | 28 | 4.71E+6 | 88 | 234 | 
Oc1ncnc2[nH]ncc12 [Allopurinol] | 2 | 4.06E+5 | 34 | 90 | Inhibition of L. guyanensis growth ([1]; highest concentration tested, 48-hour propagation, growth rate (FIG. 18A)): 30%; Inhibition of LRV1 capsid levels ([2]; highest concentration tested, 48-hour propagation (FIG. 18A)): 60%
C[C@@]1(O)[C@H](O)[C@@H](CO)O[C@H]1n1ccc(N)nc1=O [2′C-Methylcytidine, 2′C-Methyl cytidine] |  | 1.73E+7 |  | 162 | Percent control (density) [1, 4]: 103 Percent control; Effect on L. guyanensis growth, in words [1]: little effect; Percent control (LRV1 capsid) [2, 6]: 61 Percent control; Effect on LRV1 (capsid) levels, in words ([2]; 2 days): little effect
Nc1ncnc2nc[nH]c12 [adenine] |  |  |  |  | Effect of exogenous adenine on LRV1 levels, in words ([2]; adenine up to 400 μM, LgyLRV1+): nor did it alter LRV1 levels
C[C@@H]1C[C@@H]([C@H](O)CC2CC(=O)NC(=O)C2)C(=O)[C@@H](C)C1 [CHX, cycloheximide] |  |  |  |  | Population doubling time ([1]; L. guyanensis at 10 nM): 11.2 h; Population doubling time ([1]; L. guyanensis at 100 nM): 44.7 h; LRV1 capsid levels under growth-inhibiting agent, in words ([2]; LgyLRV1+, 48-hour propagation in increasing concentrations): unaffected
3′-Azido-3′-hydroxyethyl cyclobutyl adenine [Compound E9] |  | 1.58E+7 |  | 279 | Percent control (density) [1, 4]: 94 Percent control; Percent control (LRV1 capsid) [2, 6]: 105 Percent control
C=C1[C@H](CO)[C@@H](O)C[C@@H]1n1cnc2c(=O)[nH]c(N)nc21 [Entecavir] | 105 | 1.77E+7 | 45 | 119 | 
CCCC(=O)O[C@H]1CN2CC[C@H](O)[C@@H]2[C@@H](O)[C@@H]1O [Celgosivir, 6-O-butanoyl castanospermine] |  |  |  |  | activity at 10 µM ([1]; Leishmania guyanensis, 48 h, LgyLRV1+, tested at 10 μM, growth after 2 days, read-out: Percent control (density)): 65%; Density (cells/mL) ([1]; LgyLRV1+, tested at 10 μM, growth after 2 days): 1.09E+7 cells/mL; activity at 10 µM [2, 5]: 47%; LRV1 capsid (geometric mean FU) ([2]; LgyLRV1+, tested at 10 μM, 2 days): 124 FU
CC(C)C[C@H](NC(=O)[C@H]1O[C@@H]1C(=O)O)C(=O)NCCCCN=C(N)N [e64, E-64] |  |  |  |  | Density (cells/mL) [1, 7]: 1.80E+07 cells/mL; Percent control (density) [1, 7]: 107 Percent control; Effect on L. guyanensis growth, in words [1]: no effects; LRV1 capsid (geometric mean FU) [2]: 153 FU; Percent control (LRV1 capsid) ([2]; LgyLRV1+, tested at 50 μM, 2 days): 58 Percent control; Effect on LRV1 (capsid) levels, in words ([2]; 2 days): only minimal effects
Nc1nc2c(ncn2[C@@H]2O[C@H](CO)[C@@H](O)[C@H]2F)c(=O)[nH]1 [2′-fluoro-2′-deoxyguanosine, 2′-Fluoro-2′-deoxyguanosine] | 100 | 1.68E+7 | 123 | 326 | 
O=c1[nH]cnc2c([C@@H]3N[C@H](CO)[C@@H](O)[C@H]3O)c[nH]c12 [Immucillin H] |  |  |  |  | Inhibition of LRV1 levels, in words [2]: no inhibition of LRV1 levels
3′-Hydroxyethyl cyclobutyl adenine |  | 1.82E+7 |  | 290 | Percent control (density) [1, 4]: 108 Percent control; Percent control (LRV1 capsid) [2, 6]: 109 Percent control
[N-]=[N+]=N[C@]1(CO)O[C@@H](n2ccc(N)nc2=O)[C@H](O)[C@@H]1O [Compound R-1479, 4′-Azido cytidine] | 73 | 1.23E+7 | 43 | 114 | 
3′-Azido-3′-hydroxyethyl cyclobutyl adenine [Compound E8] |  | 1.86E+7 |  | 277 | Percent control (density) [1, 4]: 111 Percent control; Percent control (LRV1 capsid) [2, 6]: 104 Percent control
Cc1cn([C@H]2C[C@H](N=[N+]=[N-])[C@@H](CO)O2)c(=O)[nH]c1=O [Zidovudine] |  | 1.81E+7 | 74 | 196 | activity at 100 µM [1, 8]: 107%
COc1c(C)c2c(c(O)c1C/C=C(\C)CCC(=O)O)C(=O)OC2 [Mycophenolic acid] |  |  |  |  | activity at 1 µM ([1]; Leishmania guyanensis, 48 h, LgyLRV1+, tested at 1 μM, growth after 2 days, read-out: Percent control (density)): 3%; Density (cells/mL) ([1]; LgyLRV1+, tested at 1 μM, growth after 2 days): 4.55E+5 cells/mL; activity at 1 µM [2, 5]: 90%; LRV1 capsid (geometric mean FU) ([2]; LgyLRV1+, tested at 1 μM, 2 days): 238 FU
O=c1[nH]cnc2nn[nH]c12 [8-Azahypoxanthine] | 77 | 1.29E+7 | 95 | 251 | 
Nc1ccn(C[C@@H](CO)OCP(=O)(O)O)c(=O)n1 [Cidofovir] |  |  |  |  | activity at 40 µM ([1]; Leishmania guyanensis, 48 h, LgyLRV1+, tested at 40 μM, growth after 2 days, read-out: Percent control (density)): 59%; Density (cells/mL) ([1]; LgyLRV1+, tested at 40 μM, growth after 2 days): 9.99E+6 cells/mL; activity at 40 µM [2, 5]: 240%; LRV1 capsid (geometric mean FU) ([2]; LgyLRV1+, tested at 40 μM, 2 days): 637 FU
O=c1ccn([C@@H]2O[C@H](CO)[C@@H](O)[C@H]2F)c(=O)[nH]1 [2′-fluoro-2′-deoxyuridine, 2′-Fluoro-2′-deoxyuridine] | 132 | 2.22E+7 | 88 | 234 | 
NC(=O)c1ncn([C@@H]2O[C@H](CO)[C@@H](O)[C@H]2O)n1 [Ribavirin] | 13 | 2.21E+6 | 61 | 162 | 
O=c1nc[nH]c(=O)[nH]1 [Compound 5-Azauracil, 5-Azauracil] |  |  | 95 |  | Density (cells/mL) [1]: 1.13E+7 cells/mL; activity at 100 µM [1, 8]: 67%; LRV1 capsid (geometric mean FU) [2]: 252 FU
Nc1ncnc2c(CN3C[C@H](CO)[C@@H](O)C3)c[nH]c12 [DADMe-Immucillin A] |  |  |  |  | Inhibition of LRV1 levels, in words [2]: no inhibition of LRV1 levels
OC[C@H]1O[C@@H](n2cnc3c(O)ncnc32)[C@H](F)[C@@H]1O [2′-Fluoro-2′-deoxyinosine] | 143 | 2.41E+7 | 96 | 255 | 
O=C(O)P(=O)(O)O [Foscarnet, Phosphonoformic acid] | 56 | 9.50E+6 | 61 | 162 | Effect on LRV1 (capsid) levels, in words ([2]; 2 days): not significantly affected
C[C@@]1(O)[C@H](O)[C@@H](CO)O[C@H]1n1cnc2c(=O)[nH]c(N)nc21 [2′C-Methyguanosine, 2′C-Methyl guanosine] |  | 2.25E+7 |  | 252 | Percent control (density) [1, 4]: 133 Percent control; Effect on L. guyanensis growth, in words [1]: little effect; Percent control (LRV1 capsid) [2, 6]: 95 Percent control; Effect on LRV1 (capsid) levels, in words ([2]; 2 days): little effect
Nc1ncnc2c(C3N[C@H](CO)[C@@H](O)[C@H]3O)c[nH]c12 (some centres unmarked) [Immucillin A] |  |  |  |  | Inhibition of LRV1 levels, in words [2]: no inhibition of LRV1 levels
Nc1ccn([C@@H]2CS[C@H](CO)O2)c(=O)n1 [Lamivudine] | 55 | 9.20E+6 |  |  | 
